Active and inactive are the calls of the source. How the calls were made is not given here.
System: CCRIS mutagenicity, Ames/micronucleus/aberration tests
Experiment: CCRIS mutagenicity studies

Cc1cc(-c2ccc(N)c(C)c2)ccc1N
mutagenic call (End Point: IN VITRO CHROMOSOMAL ABERRATIONS, Test System: CHINESE HAMSTER OVARY CELLS, Metabolic Activation: NONE): active; positive
mutagenic call (End Point: IN VITRO CHROMOSOMAL ABERRATIONS, Test System: CHINESE HAMSTER OVARY CELLS, Metabolic Activation: RAT, LIVER, S-9, AROCLOR 1254): active; positive
mutagenic call (End Point: IN VITRO CHROMOSOMAL ABERRATIONS, Test System: CHL CELLS, Metabolic Activation: NONE): active; positive (structural changes)
mutagenic call (End Point: IN VITRO CHROMOSOMAL ABERRATIONS, Test System: CHL CELLS, Metabolic Activation: RAT, LIVER, S-9, SODIUM PHENOBARBITAL AND 5,6-BENZOFLAVONE): inactive; negative; authors report equivocal results for structural changes at the highest
mutagenic call (Test System: AMES SALMONELLA TYPHIMURIUM, Strain/Indicator: SV50, Metabolic Activation: NONE, Method: PREINCUBATION (PRIVAL METHOD)): inactive; negative
mutagenic call (Test System: AMES SALMONELLA TYPHIMURIUM, Strain/Indicator: SV50, Metabolic Activation: RAT, LIVER, S-9, AROCLOR 1254, Method: STANDARD PLATE): inactive; negative
mutagenic call (Test System: AMES SALMONELLA TYPHIMURIUM, Strain/Indicator: TA97, Metabolic Activation: HAMSTER, LIVER, S-9, AROCLOR 1254 (10%), Method: PREINCUBATION): inactive; negative
mutagenic call (Test System: AMES SALMONELLA TYPHIMURIUM, Strain/Indicator: TA97, Metabolic Activation: HAMSTER, LIVER, S-9, AROCLOR 1254, Method: PREINCUBATION): inactive; negative
mutagenic call (Test System: AMES SALMONELLA TYPHIMURIUM, Strain/Indicator: TA97, Metabolic Activation: NONE, Method: PREINCUBATION): inactive; negative
mutagenic call (Test System: AMES SALMONELLA TYPHIMURIUM, Strain/Indicator: TA97, Metabolic Activation: RAT, LIVER, S-9, AROCLOR 1254 (10%), Method: PREINCUBATION): inactive; negative
mutagenic call (Test System: AMES SALMONELLA TYPHIMURIUM, Strain/Indicator: TA97, Metabolic Activation: RAT, LIVER, S-9, AROCLOR 1254, Method: PREINCUBATION): inactive; negative
mutagenic call (Test System: AMES SALMONELLA TYPHIMURIUM, Strain/Indicator: TA98(1,8-DNP6), Metabolic Activation: NONE, Method: STANDARD PLATE): inactive; negative
mutagenic call (Test System: AMES SALMONELLA TYPHIMURIUM, Strain/Indicator: TA98(1,8-DNP6), Metabolic Activation: S-9, Method: STANDARD PLATE): active; positive
mutagenic call (Test System: AMES SALMONELLA TYPHIMURIUM, Strain/Indicator: TA98, Metabolic Activation: HAMSTER, LIVER, S-9, AROCLOR 1254 (10%), Method: PREINCUBATION): active; positive
mutagenic call (Test System: AMES SALMONELLA TYPHIMURIUM, Strain/Indicator: TA98, Metabolic Activation: HAMSTER, LIVER, S-9, AROCLOR 1254, Method: PREINCUBATION): active; positive
mutagenic call (Test System: AMES SALMONELLA TYPHIMURIUM, Strain/Indicator: TA98, Metabolic Activation: NONE, Method: PREINCUBATION): inactive; negative
mutagenic call (Test System: AMES SALMONELLA TYPHIMURIUM, Strain/Indicator: TA98, Metabolic Activation: NONE, Method: STANDARD PLATE): inactive; negative
mutagenic call (Test System: AMES SALMONELLA TYPHIMURIUM, Strain/Indicator: TA98, Metabolic Activation: RAT LIVER S-9, AROCLOR 1254, Method: PREINCUBATION): active; positive
mutagenic call (Test System: AMES SALMONELLA TYPHIMURIUM, Strain/Indicator: TA98, Metabolic Activation: RAT LIVER S-9, PHENOBARBITAL AND BETA-NAPHTHOFLAVONE, Method: PREINCUBATION): active; positive
mutagenic call (Test System: AMES SALMONELLA TYPHIMURIUM, Strain/Indicator: TA98, Metabolic Activation: RAT, LIVER, S-9, AROCLOR 1254 (10%), Method: PREINCUBATION): active; positive
mutagenic call (Test System: AMES SALMONELLA TYPHIMURIUM, Strain/Indicator: TA98, Metabolic Activation: RAT, LIVER, S-9, AROCLOR 1254, Method: PREINCUBATION): active; positive
mutagenic call (Test System: AMES SALMONELLA TYPHIMURIUM, Strain/Indicator: TA98, Metabolic Activation: RAT, LIVER, S-9, AROCLOR 1254, Method: STANDARD PLATE): active; positive
mutagenic call (Test System: AMES SALMONELLA TYPHIMURIUM, Strain/Indicator: TA98, Metabolic Activation: S-9, Method: STANDARD PLATE): active; positive
mutagenic call (Test System: AMES SALMONELLA TYPHIMURIUM, Strain/Indicator: TA100, Metabolic Activation: HAMSTER, LIVER, S-9, AROCLOR 1254 (10%), Method: PREINCUBATION): inactive; negative
mutagenic call (Test System: AMES SALMONELLA TYPHIMURIUM, Strain/Indicator: TA100, Metabolic Activation: HAMSTER, LIVER, S-9, AROCLOR 1254, Method: PREINCUBATION): inactive; negative
mutagenic call (Test System: AMES SALMONELLA TYPHIMURIUM, Strain/Indicator: TA100, Metabolic Activation: NONE, Method: PREINCUBATION): inactive; negative
mutagenic call (Test System: AMES SALMONELLA TYPHIMURIUM, Strain/Indicator: TA100, Metabolic Activation: NONE, Method: STANDARD PLATE): inactive; negative
mutagenic call (Test System: AMES SALMONELLA TYPHIMURIUM, Strain/Indicator: TA100, Metabolic Activation: RAT LIVER S-9, AROCLOR 1254, Method: PREINCUBATION): inactive; negative
mutagenic call (Test System: AMES SALMONELLA TYPHIMURIUM, Strain/Indicator: TA100, Metabolic Activation: RAT LIVER S-9, PHENOBARBITAL AND BETA-NAPHTHOFLAVONE, Method: PREINCUBATION): inactive; negative
mutagenic call (Test System: AMES SALMONELLA TYPHIMURIUM, Strain/Indicator: TA100, Metabolic Activation: RAT, LIVER, S-9, AROCLOR 1254 (10%), Method: PREINCUBATION): inactive; negative
mutagenic call (Test System: AMES SALMONELLA TYPHIMURIUM, Strain/Indicator: TA100, Metabolic Activation: RAT, LIVER, S-9, AROCLOR 1254, Method: PREINCUBATION): inactive; negative
mutagenic call (Test System: AMES SALMONELLA TYPHIMURIUM, Strain/Indicator: TA100, Metabolic Activation: S-9, Method: STANDARD PLATE): active; positive
mutagenic call (Test System: AMES SALMONELLA TYPHIMURIUM, Strain/Indicator: TA1535, Metabolic Activation: HAMSTER, LIVER, S-9, AROCLOR 1254 (10%), Method: PREINCUBATION): inactive; negative
mutagenic call (Test System: AMES SALMONELLA TYPHIMURIUM, Strain/Indicator: TA1535, Metabolic Activation: HAMSTER, LIVER, S-9, AROCLOR 1254, Method: PREINCUBATION): inactive; negative
mutagenic call (Test System: AMES SALMONELLA TYPHIMURIUM, Strain/Indicator: TA1535, Metabolic Activation: NONE, Method: PREINCUBATION): inactive; negative
mutagenic call (Test System: AMES SALMONELLA TYPHIMURIUM, Strain/Indicator: TA1535, Metabolic Activation: RAT, LIVER, S-9, AROCLOR 1254 (10%), Method: PREINCUBATION): inactive; negative
mutagenic call (Test System: AMES SALMONELLA TYPHIMURIUM, Strain/Indicator: TA1535, Metabolic Activation: RAT, LIVER, S-9, AROCLOR 1254, Method: PREINCUBATION): inactive; negative
mutagenic call (Test System: AMES SALMONELLA TYPHIMURIUM, Strain/Indicator: TA1537, Metabolic Activation: RAT LIVER S-9, PHENOBARBITAL AND BETA-NAPHTHOFLAVONE, Method: PREINCUBATION): inactive; negative
mutagenic call (Test System: AMES SALMONELLA TYPHIMURIUM, Strain/Indicator: TA1538, Metabolic Activation: HAMSTER, LIVER, S-9, Method: STANDARD PLATE): active; positive
mutagenic call (Test System: AMES SALMONELLA TYPHIMURIUM, Strain/Indicator: TA1538, Metabolic Activation: RAT, LIVER, S-9, AROCLOR 1254, Method: STANDARD PLATE): active; positive
mutagenic call (Test System: Ames Salmonella typhimurium, Strain/Indicator: TA98, Metabolic Activation: Rat, Liver, S-9, Sodium phenobarbitone, Method: Preincubation): active; positive, test conducted under both aerobic and anaerobic conditions.
mutagenic call (Test System: Ames Salmonella typhimurium, Strain/Indicator: TA102, Metabolic Activation: None, Method: Preincubation): inactive; negative
mutagenic call (Test System: Ames Salmonella typhimurium, Strain/Indicator: TA102, Metabolic Activation: Rat, Liver, S-9, Aroclor 1254, Method: Preincubation): inactive; negative
mutagenic call (Test System: Ames Salmonella typhimurium, Strain/Indicator: TA1538, Metabolic Activation: Rat, Liver, S-9, Sodium phenobarbitone, Method: Preincubation): active; positive, test conducted under both aerobic and anaerobic conditions.
mutagenic call (Test System: MOUSE LYMPHOMA, Strain/Indicator: L5178Y (TK+/TK-), Metabolic Activation: NONE, Method: SUSPENSION/PLATE): active; positive
mutagenic call (Test System: MOUSE LYMPHOMA, Strain/Indicator: L5178Y (TK+/TK-), Metabolic Activation: RAT, LIVER, S-9, AROCLOR 1254, Method: SUSPENSION/PLATE): active; positive

Reference: PubChem BioAssay AID1259407 (Chemical Carcinogenesis Research Information System (CCRIS), 2018)
